What follows are compounds tested on DU-145 (assay: Growth inhibition of human DU145 cells assessed as cell growth at 10 uM incubated for 48 hrs by sulforhodamine B assay relative to control). Conditions: DU-145, 48 h, read-out: Activity.
Format: functional

SMILES	growth at 10 µM [%]
COc1cc(Cl)cc(-c2nn(-c3cccc(NC(=O)Nc4ccc(Cl)c(C(F)(F)F)c4)c3)cc2-c2ccncc2)c1	15.2

The compounds below were run on MDA-MB-468 (assay: Growth inhibition of human MDA-MB-468 cells assessed as cell growth at 10 uM incubated for 48 hrs by sulforhodamine B assay relative to control). Conditions: MDA-MB-468, 48 h, read-out: Activity.
Format: functional

SMILES	growth at 10 µM [%]
COc1cc(Cl)cc(-c2nn(-c3cccc(NC(=O)Nc4ccc(Cl)c(C(F)(F)F)c4)c3)cc2-c2ccncc2)c1	-14.4

These compounds were tested on NCI/ADR-RES (assay: Growth inhibition of human NCI/ADR-RES cells incubated for 48 hrs by sulforhodamine B assay). Conditions: read-out: GI50.
Format: functional, cell-based

SMILES	GI50 [µM]
COc1cc(Cl)cc(-c2nn(-c3cccc(NC(=O)Nc4ccc(Cl)c(C(F)(F)F)c4)c3)cc2-c2ccncc2)c1	1.77

Same assay, conditions: read-out: LC50 (the source's name)

SMILES	CC50 [µM]
COc1cc(Cl)cc(-c2nn(-c3cccc(NC(=O)Nc4ccc(Cl)c(C(F)(F)F)c4)c3)cc2-c2ccncc2)c1	> 100

Same assay, conditions: read-out: TGI

SMILES	TGI [µM]
COc1cc(Cl)cc(-c2nn(-c3cccc(NC(=O)Nc4ccc(Cl)c(C(F)(F)F)c4)c3)cc2-c2ccncc2)c1	11.5

Same assay, conditions: read-out: pGI50 (converted)

SMILES	GI50 [µM]
COc1cc(Cl)cc(-c2nn(-c3cccc(NC(=O)Nc4ccc(Cl)c(C(F)(F)F)c4)c3)cc2-c2ccncc2)c1	1.78

Same assay, conditions: read-out: pLC50 (the source's name) (converted)

SMILES	CC50 [µM]
COc1cc(Cl)cc(-c2nn(-c3cccc(NC(=O)Nc4ccc(Cl)c(C(F)(F)F)c4)c3)cc2-c2ccncc2)c1	> 100

Same assay, conditions: read-out: pTGI (converted)

SMILES	TGI [µM]
COc1cc(Cl)cc(-c2nn(-c3cccc(NC(=O)Nc4ccc(Cl)c(C(F)(F)F)c4)c3)cc2-c2ccncc2)c1	5.89

What follows are compounds tested on LOX IMVI (assay: Growth inhibition of human LOXIMVI cells assessed as cell growth at 0.01 uM incubated for 48 hrs by sulforhodamine B assay relative to control). Conditions: read-out: Activity.
Format: functional

SMILES	growth at 0.01 µM [%]
COc1cc(Cl)cc(-c2nn(-c3cccc(NC(=O)Nc4ccc(Cl)c(C(F)(F)F)c4)c3)cc2-c2ccncc2)c1	98

The compounds below were run on MOLT-4 (assay: Growth inhibition of human MOLT4 cells assessed as cell growth at 0.1 uM incubated for 48 hrs by sulforhodamine B assay relative to control). Conditions: MOLT-4, 48 h, read-out: Activity.
Format: functional

SMILES	growth at 0.1 µM [%]
COc1cc(Cl)cc(-c2nn(-c3cccc(NC(=O)Nc4ccc(Cl)c(C(F)(F)F)c4)c3)cc2-c2ccncc2)c1	57

The compounds below were run on SF-295 (assay: Growth inhibition of human SF295 cells assessed as cell growth at 0.1 uM incubated for 48 hrs by sulforhodamine B assay relative to control). Conditions: SF-295, 48 h, read-out: Activity.
Format: functional

SMILES	growth at 0.1 µM [%]
COc1cc(Cl)cc(-c2nn(-c3cccc(NC(=O)Nc4ccc(Cl)c(C(F)(F)F)c4)c3)cc2-c2ccncc2)c1	98

These compounds were tested on SK-MEL-5 (assay: Growth inhibition of human SK-MEL-5 cells assessed as cell growth at 0.1 uM incubated for 48 hrs by sulforhodamine B assay relative to control). Conditions: SK-MEL-5, 48 h, read-out: Activity.
Format: functional

SMILES	growth at 0.1 µM [%]
COc1cc(Cl)cc(-c2nn(-c3cccc(NC(=O)Nc4ccc(Cl)c(C(F)(F)F)c4)c3)cc2-c2ccncc2)c1	98

The compounds below were run on PC-3 (assay: Growth inhibition of human PC3 cells assessed as cell growth at 0.1 uM incubated for 48 hrs by sulforhodamine B assay relative to control). Conditions: PC-3, 48 h, read-out: Activity.
Format: functional

SMILES	growth at 0.1 µM [%]
COc1cc(Cl)cc(-c2nn(-c3cccc(NC(=O)Nc4ccc(Cl)c(C(F)(F)F)c4)c3)cc2-c2ccncc2)c1	91

These compounds were tested on SK-MEL-5 (assay: Growth inhibition of human SK-MEL-5 cells assessed as cell growth at 1 uM incubated for 48 hrs by sulforhodamine B assay relative to control). Conditions: SK-MEL-5, 48 h, read-out: Activity.
Format: functional

SMILES	growth at 1 µM [%]
COc1cc(Cl)cc(-c2nn(-c3cccc(NC(=O)Nc4ccc(Cl)c(C(F)(F)F)c4)c3)cc2-c2ccncc2)c1	83

The compounds below were run on OVCAR-3 (assay: Growth inhibition of human OVCAR3 cells assessed as cell growth at 1 uM incubated for 48 hrs by sulforhodamine B assay relative to control). Conditions: OVCAR-3, 48 h, read-out: Activity.
Format: functional

SMILES	growth at 1 µM [%]
COc1cc(Cl)cc(-c2nn(-c3cccc(NC(=O)Nc4ccc(Cl)c(C(F)(F)F)c4)c3)cc2-c2ccncc2)c1	24

The compounds below were run on OVCAR-5 (assay: Growth inhibition of human OVCAR5 cells assessed as cell growth at 1 uM incubated for 48 hrs by sulforhodamine B assay relative to control). Conditions: OVCAR-5, 48 h, read-out: Activity.
Format: functional

SMILES	growth at 1 µM [%]
COc1cc(Cl)cc(-c2nn(-c3cccc(NC(=O)Nc4ccc(Cl)c(C(F)(F)F)c4)c3)cc2-c2ccncc2)c1	81

These compounds were tested on A549 (assay: Growth inhibition of human A549/ATCC cells assessed as cell growth at 100 uM incubated for 48 hrs by sulforhodamine B assay relative to control). Conditions: A549, 48 h, read-out: Activity.
Format: functional

SMILES	growth at 100 µM [%]
COc1cc(Cl)cc(-c2nn(-c3cccc(NC(=O)Nc4ccc(Cl)c(C(F)(F)F)c4)c3)cc2-c2ccncc2)c1	-76

What follows are compounds tested on HT-29 (assay: Growth inhibition of human HT-29 cells assessed as cell growth at 100 uM incubated for 48 hrs by sulforhodamine B assay relative to control). Conditions: HT-29, 48 h, read-out: Activity.
Format: functional

SMILES	growth at 100 µM [%]
COc1cc(Cl)cc(-c2nn(-c3cccc(NC(=O)Nc4ccc(Cl)c(C(F)(F)F)c4)c3)cc2-c2ccncc2)c1	-84

What follows are compounds tested on DU-145 (assay: Growth inhibition of human DU145 cells assessed as cell growth at 100 uM incubated for 48 hrs by sulforhodamine B assay relative to control). Conditions: DU-145, 48 h, read-out: Activity.
Format: functional

SMILES	growth at 100 µM [%]
COc1cc(Cl)cc(-c2nn(-c3cccc(NC(=O)Nc4ccc(Cl)c(C(F)(F)F)c4)c3)cc2-c2ccncc2)c1	-71

From ChEMBL document CHEMBL4308841, “Synthesis, in vitro antiproliferative activity, and kinase inhibitory effects of pyrazole-containing diarylureas and diarylamides” (Eur J Med Chem, 2018)
